Data reported in paper PMC10976477 (RSC Advances, 2024).

Experiments:
[1] = DPPH radical scavenging assay; conditions: read-out: IC50 (μM) ± SEM DPPH
[2] = ABTS radical cation scavenging assay; conditions: read-out: IC50 (μM) ± SEM ABTS
[3] = Ferric ion reducing antioxidant power; conditions: μM equivalent to the standard antioxidant ascorbic acid
human MAO-B = molecular target: T1, human MAO-B (Homo sapiens, UniProt P27338); test: MAO-B inhibition assay; type: biochemical; conditions: for SI = IC50 of MAO-A/IC50 of MAO-B: selectivity index
T1 sequence (P27338 1-520): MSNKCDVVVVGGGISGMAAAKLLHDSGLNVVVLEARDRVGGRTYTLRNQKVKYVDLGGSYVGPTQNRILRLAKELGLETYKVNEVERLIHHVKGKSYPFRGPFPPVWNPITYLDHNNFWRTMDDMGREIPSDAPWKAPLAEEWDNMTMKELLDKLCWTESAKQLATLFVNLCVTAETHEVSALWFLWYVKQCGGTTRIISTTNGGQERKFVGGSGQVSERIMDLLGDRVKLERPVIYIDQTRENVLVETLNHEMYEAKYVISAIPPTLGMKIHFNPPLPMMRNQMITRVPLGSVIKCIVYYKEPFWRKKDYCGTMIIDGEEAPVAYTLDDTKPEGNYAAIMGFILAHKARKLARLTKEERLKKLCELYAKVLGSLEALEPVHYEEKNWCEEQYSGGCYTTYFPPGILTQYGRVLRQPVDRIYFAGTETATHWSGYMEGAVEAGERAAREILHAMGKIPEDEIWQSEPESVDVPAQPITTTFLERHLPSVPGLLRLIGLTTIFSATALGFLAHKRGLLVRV

eeAChE = eeAChE (Electrophorus electricus, UniProt O42275); test: Cholinesterase inhibition, Ellman's assay; type: biochemical, electric eel; conditions: for SI = IC50 of BChE/IC50 of AChE: selectivity index
human MAO-A = molecular target: T2, human MAO-A (Homo sapiens, UniProt P21397); test: MAO-A inhibition assay; type: biochemical
T2 sequence (P21397 1-527): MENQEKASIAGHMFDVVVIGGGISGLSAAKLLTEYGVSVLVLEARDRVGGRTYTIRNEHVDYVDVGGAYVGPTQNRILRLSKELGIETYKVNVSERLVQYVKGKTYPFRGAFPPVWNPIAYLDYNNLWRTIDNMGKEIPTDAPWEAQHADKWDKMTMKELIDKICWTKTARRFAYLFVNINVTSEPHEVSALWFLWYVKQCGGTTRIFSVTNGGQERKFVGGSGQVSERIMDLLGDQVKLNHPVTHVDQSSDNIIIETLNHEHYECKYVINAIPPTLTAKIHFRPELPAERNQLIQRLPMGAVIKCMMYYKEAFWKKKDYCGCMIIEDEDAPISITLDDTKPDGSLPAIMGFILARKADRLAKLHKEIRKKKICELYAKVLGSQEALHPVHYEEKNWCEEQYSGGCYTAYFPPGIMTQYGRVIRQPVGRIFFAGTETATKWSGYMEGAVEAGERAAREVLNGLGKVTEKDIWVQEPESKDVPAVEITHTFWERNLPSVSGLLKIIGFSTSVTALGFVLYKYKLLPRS

eqBChE = eqBChE (Equus caballus, UniProt P81908); test: biochemical
Aβ1–42 peptide = Aβ1–42 peptide (Homo sapiens, UniProt P05067); test: ThT fluorescence assay for self-mediated Aβ1–42 aggregation; type: biochemical; conditions: for inhibition of amyloid beta fibrils: after a 24-hour equimolar administration, ThT fluorescence (Fig. 4)
COX-2 = molecular target: T3, COX-2 (Homo sapiens, UniProt P35354); test: biochemical
T3 sequence (P35354 18-604): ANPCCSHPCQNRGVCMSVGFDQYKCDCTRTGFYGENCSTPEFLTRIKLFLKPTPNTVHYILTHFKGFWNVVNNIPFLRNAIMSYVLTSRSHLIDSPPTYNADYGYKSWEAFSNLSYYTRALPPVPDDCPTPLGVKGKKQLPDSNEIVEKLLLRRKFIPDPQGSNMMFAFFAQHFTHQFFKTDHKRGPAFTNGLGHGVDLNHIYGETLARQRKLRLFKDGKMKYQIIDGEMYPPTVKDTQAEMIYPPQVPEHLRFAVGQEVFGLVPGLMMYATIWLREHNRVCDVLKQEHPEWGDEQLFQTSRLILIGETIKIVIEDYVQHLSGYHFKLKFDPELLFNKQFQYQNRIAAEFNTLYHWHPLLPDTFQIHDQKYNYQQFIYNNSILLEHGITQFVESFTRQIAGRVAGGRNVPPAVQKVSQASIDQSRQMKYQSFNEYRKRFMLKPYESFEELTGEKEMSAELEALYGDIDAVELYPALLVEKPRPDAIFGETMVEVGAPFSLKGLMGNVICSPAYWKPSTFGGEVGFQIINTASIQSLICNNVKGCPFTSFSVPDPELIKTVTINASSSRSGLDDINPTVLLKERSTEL

SH-SY5Y cells = test: SH-SY5Y neuroblastoma cell toxicity; type: cell-based, human; conditions: for neurotoxicity / cytotoxicity on SH-SY5Y cells: 10–100 μM, 48 h incubation, MTT
HEK-293 cells = test: Cell viability assay on normal human embryonic HEK-293 cells; type: cell-based; conditions: 1, 10, 20, 40 and 100 μM, MTT
[4] = In vivo antioxidant potential in mice; conditions: 5 mg kg^−1, SOD, CAT, GSH

Sequence of eqBChE (P81908 whole entry): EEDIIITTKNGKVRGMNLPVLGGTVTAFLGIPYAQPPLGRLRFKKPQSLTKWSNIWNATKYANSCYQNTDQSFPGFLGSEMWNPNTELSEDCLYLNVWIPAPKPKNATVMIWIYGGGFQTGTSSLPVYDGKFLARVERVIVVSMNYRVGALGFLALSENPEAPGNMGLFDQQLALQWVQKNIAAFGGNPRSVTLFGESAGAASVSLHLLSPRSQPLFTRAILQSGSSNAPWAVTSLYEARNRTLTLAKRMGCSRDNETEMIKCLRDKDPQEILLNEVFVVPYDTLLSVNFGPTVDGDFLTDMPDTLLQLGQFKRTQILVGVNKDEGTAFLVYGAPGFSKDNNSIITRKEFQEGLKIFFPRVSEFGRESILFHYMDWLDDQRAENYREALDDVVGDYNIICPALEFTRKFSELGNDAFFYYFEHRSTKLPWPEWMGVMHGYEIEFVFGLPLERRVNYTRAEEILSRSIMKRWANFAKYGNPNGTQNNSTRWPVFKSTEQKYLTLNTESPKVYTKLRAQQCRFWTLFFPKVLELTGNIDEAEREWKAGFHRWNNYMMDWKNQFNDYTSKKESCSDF
Sequence of Aβ1–42 peptide (P05067 672-713): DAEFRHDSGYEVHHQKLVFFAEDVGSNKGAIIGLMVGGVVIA
Sequence of eeAChE (O42275 24-633): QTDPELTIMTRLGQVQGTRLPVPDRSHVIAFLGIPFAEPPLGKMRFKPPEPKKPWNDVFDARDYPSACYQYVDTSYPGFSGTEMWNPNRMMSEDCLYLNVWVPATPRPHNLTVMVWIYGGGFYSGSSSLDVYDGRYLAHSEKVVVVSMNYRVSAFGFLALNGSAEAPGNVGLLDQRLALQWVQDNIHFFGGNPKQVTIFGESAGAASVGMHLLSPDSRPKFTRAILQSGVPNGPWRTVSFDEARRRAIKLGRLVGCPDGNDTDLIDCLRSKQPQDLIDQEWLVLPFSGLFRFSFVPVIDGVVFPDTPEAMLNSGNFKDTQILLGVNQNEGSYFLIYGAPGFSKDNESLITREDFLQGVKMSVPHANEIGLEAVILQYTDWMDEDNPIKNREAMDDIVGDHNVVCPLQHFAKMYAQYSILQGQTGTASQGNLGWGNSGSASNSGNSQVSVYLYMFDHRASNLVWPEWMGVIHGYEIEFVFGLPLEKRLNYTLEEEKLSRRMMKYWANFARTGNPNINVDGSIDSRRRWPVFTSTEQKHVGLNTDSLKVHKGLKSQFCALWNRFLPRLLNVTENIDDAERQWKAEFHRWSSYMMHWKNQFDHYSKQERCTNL

| SMILES | IC50 [1] | IC50 [2] | FRAP value [3] | IC50 (human MAO-B) | IC50 (eeAChE) | IC50 (human MAO-A) | SI = IC50 of MAO-A/IC50 of MAO-B (human MAO-B) | SI = IC50 of BChE/IC50 of AChE (eeAChE) | IC50 (eqBChE) | IC50 (Aβ1–42 peptide) | inhibition of amyloid beta fibrils (Aβ1–42 peptide) | IC50 (COX-2) | neurotoxicity / cytotoxicity on SH-SY5Y cells (SH-SY5Y cells) | cytotoxic effect on viability of HEK-293 cells (HEK-293 cells) | in vivo antioxidant activity [4] | protective ability on SH-SY5Y (SH-SY5Y cells; at all concentrations (10–100 μM)) |
| --- | --- | --- | --- | --- | --- | --- | --- | --- | --- | --- | --- | --- | --- | --- | --- | --- |
| O=C1O[C@H]([C@@H](O)CO)C(O)=C1O [Ascorbic acid, reference compound] | 4.89 ± 0.09 µM | 6.08 ± 0.21 µM | 90.89 µM | – | – | – | – | – | – | – | – | – | – | – | – | – |
| COc1cc(/C=C/C(=O)NC(C)C(N)=O)ccc1O (centres unmarked) [Compound 18, (E)-N-(1-Amino-1-oxopropan-2-yl)-3-(4-hydroxy-3-methoxyphenyl)acrylamide] | 58.3 ± 1.21 µM | 45.1 ± 1.77 µM | 29.84 µM | 10 ± 1.03 µM | 58.4 ± 0.09 µM | – | – | – | – | – | – | – | – | – | – | – |
| CC(NC(=O)/C=C/c1ccc(-c2ccccc2)cc1)C(N)=O (centres unmarked) [Compound 20, (E)-3-([1,1′-Biphenyl]-4-yl)-N-(1-amino-1-oxopropan-2-yl)acryl-amide] | – | 77.1 ± 1.37 µM | 44.81 µM | 0.513 ± 0.07 µM | 13.51 ± 0.1 µM | 10 ± 0.925 µM | 19 | 6 | 84.1 ± 1.32 µM | – | – | – | – | – | – | – |
| COc1cc(/C=C/C(=O)Nc2nc3ccc(O)cc3s2)ccc1O [Compound 21, (E)-3-(4-Hydroxy-3-methoxyphenyl)-N-(6-hydroxybenzo[d]thiazol-2-yl)acrylamide] | 14.44 ± 0.13 µM | 6.29 ± 0.09 µM | 36.01 µM | 0.491 ± 0.024 µM | 29.84 ± 0.1 µM | 37.1 ± 1.03 µM | 75 | 1 | 43.1 ± 1.09 µM | – | – | – | – | – | – | – |
| O=C(/C=C/c1ccc(-c2ccccc2)cc1)Nc1nc2ccc(O)cc2s1 [Compound 23, (E)-3-([1,1′-Biphenyl]-4-yl)-N-(6-hydroxybenzo[d]thiazol-2-yl)acryl-amide] | 18.19 ± 0.11 µM | 12.1 ± 0.14 µM | 53.57 µM | – | 0.071 ± 0.1 µM | 10 ± 0.5 µM | 270 | 220 | 15.6 ± 0.901 µM | 23.1 ± 1.05 µM | approximately 30% | 14.4 ± 0.28 µM | did not show any apparent neurotoxicity | not showed in cytotoxic effect | good to moderate in vivo antioxidant activity | – |
| COc1cc(/C=C/C(=O)Nc2ccc(S(N)(=O)=O)cc2)ccc1O [Compound 24, (E)-3-(4-Hydroxy-3-methoxyphenyl)-N-(4-sulfamoylphenyl)acryl-amide] | 21.21 ± 0.15 µM | 48.8 ± 1.2 µM | 14.75 µM | 0.142 ± 0.011 µM | 10.74 ± 0.1 µM | 76.6 ± 1.22 µM | 539 | 5 | 58.2 ± 1.41 µM | – | – | – | – | – | – | – |
| COc1cc(/C=C/C(=O)Nc2ccc(S(N)(=O)=O)cc2)ccc1OCc1ccccc1 [Compound 25, (E)-3-(4-(Benzyloxy)-3-methoxyphenyl)-N-(4-sulfamoylphenyl)acrylamide] | 25 ± 1.16 µM | 20.7 ± 1.11 µM | 20.07 µM | 0.066 ± 0.004 µM | 0.835 ± 0.1 µM | 28.2 ± 1.09 µM | 426 | 17 | 14.1 ± 0.639 µM | 14.1 ± 0.24 µM | ~50% | 0.74 ± 0.13 µM | did not show any apparent neurotoxicity | not showed in cytotoxic effect | – | – |
| NS(=O)(=O)c1ccc(NC(=O)/C=C/c2ccc(-c3ccccc3)cc2)cc1 [Compound 26, (E)-3-([1,1′-Biphenyl]-4-yl)-N-(4-sulfamoylphenyl)acrylamide] | – | 40.6 ± 1.11 µM | 24.7 µM | 0.327 ± 0.011 µM | 0.89 ± 0.1 µM | 19.9 ± 1.17 µM | 60 | 1 | 1.03 ± 0.031 µM | 19.52 ± 0.18 µM | – | 2.19 ± 0.1 µM | – | not showed in cytotoxic effect | – | – |
| CC(NC(=O)c1cc(O)c(O)c(O)c1)C(N)=O (centres unmarked) [Compound 27, N-(1-Amino-1-oxopropan-2-yl)-3,4,5-trihydroxybenzamide] | 14.6 ± 0.52 µM | 20.4 ± 0.3 µM | – | 30.2 ± 1.18 µM | 49.03 ± 0.1 µM | – | – | – | – | – | – | – | – | – | – | 40–50% |
| NS(=O)(=O)c1ccc(NC(=O)c2cc(O)c(O)c(O)c2)cc1 [Compound 29, 3,4,5-Trihydroxy-N-(4-sulfamoylphenyl)benzamide] | 10.8 ± 0.63 µM | 23.5 ± 1.04 µM | – | 0.395 ± 0.34 µM | 3.64 ± 0.1 µM | 21.4 ± 0.316 µM | 54 | 9 | 34 ± 1.18 µM | – | – | – | did not show any apparent neurotoxicity | – | not determined to be active | – |
| COc1cc(/C=C/C(=O)CC(=O)/C=C/c2ccc(O)c(OC)c2)ccc1O [Curcumin, reference compound] | – | – | – | – | – | – | – | – | – | – | around 60% | – | – | – | – | – |
| COc1cc(/C=C/C(=O)O)ccc1O [Ferulic acid, trans-4-hydroxy-3-methoxycinnamic acid, reference compound] | 69.8 ± 1.48 µM | – | – | – | – | – | – | – | – | – | – | – | – | – | – | – |
| O=C(O)c1cc(O)c(O)c(O)c1 [Gallic acid, reference compound] | 35.2 ± 1.04 µM | 35.2 ± 1.19 µM | – | – | – | – | – | – | – | – | – | – | – | – | – | – |
| C#CCN[C@@H]1CCc2ccccc21 [rasigiline, rasagiline, reference compound] | – | – | – | – | – | – | – | – | – | – | – | – | no cytotoxicity | – | – | – |
| Cc1c(C)c2c(c(C)c1O)CCC(C)(C(=O)O)O2 (centres unmarked) [trolox, reference compound] | – | – | – | – | – | – | – | – | – | – | – | – | no cytotoxicity | – | significant antioxidant potential | – |
